Results from patent US20030060508A1, “Polyunsaturated fatty acid fractions of Nigella sativa L. seeds” (priority 2000, published 2003).

Experiments:
Corynebacterium pyogenes = test: Comparative antibacterial activity with ampicillin, bore method; type: cell-based; settings: 1 μg/mL, read-out: Diameter of Zone of Inhibition
Procedure: (§1) […] The values are the average of three separate experiments. The anti-bacterial activity of the tested isolates was detected in vitro using the bore method. The nutrient agar medium containing one bacterial strain was poured into sterilized petri-dishes, each 20×120 mm, then left for 10 minutes to dry. Using the borer No. 5, a central bore was made in each plate, then another 4 were arranged it. The effect of different concentrations of the tested isolates on certain microorganisms was tested in 2 plates.
(§2) The comparative antibacterial activity of ampicillin and the Nigella sativa L. polyunsaturated fatty acid fraction against certain bacterial strains (Streptococcus pyogenes, Corynebacterium pyogenes and Salmonella typhi murium) was preformed in vitro using the bore method as described by Cooper and Woodman (1964) as previously described. The effect of ampicillin (1 μg/mL) and the Nigella sativa L. polyunsaturated fatty acid fraction (at 1 mg/ml) on the previously mentioned bacteria was tested.

Salmonella typhi murium = test: as above; type: cell-based; settings: Salmonella enterica, read-out: Diameter of Zone of Inhibition
Procedure: as §1, §2

Streptococcus pyogenes = test: as above; type: cell-based; settings: 1 μg/mL, read-out: Diameter of Zone of Inhibition
Procedure: as §1, §2

[1] = tested on: writhing induced by parabenzoquinone; test: analgesic activity, writhing method; type: in vivo, mice; settings: 5.0 mg/100 g.b.w.
Procedure: The analgesic activity of the Nigella sativa L. polyunsaturated fatty acid fraction was studied using the writhing method described by Okun et al. (1963). Thirty mature mice of both sexes weighing from 20 to 25 gm were divided into 3 groups of 10 mice each. The first group served as a control and the second group served as a standard (treated with paracetamol in a dose of 5 mg/100 gm body weight). The third group was injected subcutaneously with the Nigella sativa L. polyunsaturated fatty acid fraction. After 30 minutes, mice were injected intraperitoneally with 0.25 ml of a solution of parabenziquinone (0.2 mg/ml in saline). […] Animals devoid of writhing in each group were recorded and the analgesic potencies of paracetamol and the Nigella sativa L. polyunsaturated fatty acid fraction were determined as percent protection against writhing.

rat paw formalin edema = test: anti-inflammatory activity, rat paw formalin edema; type: in vivo, rats; settings: 3 mg/100 g.b.w. intraperitoneally
Procedure: The anti-inflammatory activity of the Nigella sativa L. polyunsaturated fatty acid fraction was carried out in rats using a modification of rat paw formalin edema as described by Domemjoz et al. (1965).
Fifteen mature albino rats of both sexes weighing 150-200 gm were divided into 3 groups of 5 rats each. At the beginning of the experiment, the thickness of the rat left hind paw was measured using a Vernier caliper. Thereafter, rats of the first group were kept as a control and those of the second group (standard) were injected intraperitoneally with phenylbutazone in a dose of 3 mg/100 gm body weight. Rats of the third group were injected with the Nigella sativa L. polyunsaturated fatty acid fraction. After 30 minutes, inflammation was induced by subcutaneous injection of 0.1 mL of 6% solution of formalin in normal saline into the left hind paw.
The anti-inflammatory effect of the Nigella sativa L. polyunsaturated fatty acid fraction was estimated by comparing the magnitude of the paw swelling in the pretreated animals with that of the control animals. Measurement of rat paw thickness was carried out at hourly intervals for a period of 3 hours.

[2] = tested on: histamine-induced bronchospasm in guinea pigs; test: protection from histamine-induced bronchospasm; type: in vivo; settings: 239 mg/kg i.p.
Procedure: The anti-histamine effects of the Nigella sativa L. polyunsaturated fatty acid fraction on induced bronchospasm in guinea pigs was evaluated using the methods described by Armitage et al, Brit. J Pharmacol., 16:59-76 (1961). Willis, J. Pharm. Pharmacol., 21:126 (1969).
The prophylactic anti-allergic effects were evaluated in guinea pigs (300-400 grams). The animals were divided into 5 groups (10 animals each) and treated i.p. as follows: (1) animals treated with saline (control); (2) animals treated with diphenydramine (239 mg/kg/day); (3) animals treated with 50 mg/kg polyunsaturated fatty acid fraction; (4) animals treated with 100 mg/kg polyunsaturated fatty acid fraction; and (5) animals treated with 150 mg/kg polyunsaturated fatty acid fraction.
Animals were exposed 30 minutes after their i.p. injection of diphenydramine and polyunsaturated fatty acid fraction to histamine aerosol (1%) for 3 minutes. Bronchospasm and loss of rightening after 30, 60 and 90 minutes was calculated according to the following formula (Dawson and Sweatman, Br. J. Pharmacol., 71:387-398 (1980)): [formula]

[3] = tested on: ova albumin inhalation in sensitized guinea pigs; test: time to onset of tachypnea in sensitized animals; type: in vivo; settings: 50 microg/kg, treated for 21 days
Procedure: The second protocol involved sensitized animals. Animals were sensitized by injecting ova albumin in two doses 100 mg. each (S.C. and I.P., simultaneously). Animals were resensitized 15 days later. Guinea pigs were divided into three groups with 8 animals per group. The first group received a saline injection to serve as negative control. The second group received ketotifen which is the standard treatment to serve as positive control. The third group received 200 mg/kg each of Nigella sativa L. polyunsaturated fatty acid fraction. Animals in all groups were treated for 21 days following which they were exposed to ova albumin inhalation and time to onset of tachypnea was recorded as shown in the table below (*Statistically significant from the control group (P<0.05)).

[4] = tested on: guinea pigs exposed to histamine aerosol (0.25%); test: prophylactic anti-asthmatic effect, preconvulsive time; type: in vivo; settings: 5 microg/kg, treated for 21 days
Procedure: This example explains in vivo studies to evaluate the prophylactic (protective) anti-asthmatic effect of the Nigella sativa L. polyunsaturated fatty acid fraction. The prophylactic antiasthmatic effect was evaluated in vivo by measurement of the preconvulsive time in guinea pigs exposed to histamine aerosol (0.25%).
Guinea pigs were divided into three groups with 8 animals per group. The first group received a saline injection to serve as negative control. The second group received ketotifen, which is the standard treatment to serve as positive control. The third group received 200 mg/kg of the Nigella sativa L. polyunsaturated fatty acid fraction.
Animals in all groups were treated for 21 days, after which they were exposed to histamine (0.25%) aerosol and the preconvulsive time was recorded.

SMILES: CC1(C)S[C@@H]2[C@H](NC(=O)[C@H](N)c3ccccc3)C(=O)N2[C@H]1C(=O)O [Ampicillin, ampicillin]
- zone of inhibition at 1 µg/mL (Corynebacterium pyogenes): 44.7 ± 0.8 mm
- zone of inhibition at 1 µg/mL (Salmonella typhi murium): 13.1 ± 0.2 mm
- zone of inhibition at 1 µg/mL (Streptococcus pyogenes): 26.7 ± 0.3 mm

SMILES: CC(=O)Nc1ccc(O)cc1 [Paracetamol, paracetamol]
- % Protection, 120 minutes [1]: 20%
- % protection 30 minutes [1]: 100%
- % protection 60 minutes [1]: 60%
- % protection 90 minutes [1]: 40%

SMILES: CCCCC1C(=O)N(c2ccccc2)N(c2ccccc2)C1=O [Phenylbutazone, phenylbutazone]
- Rat Paw Thickness, 1 Hour (rat paw formalin edema): 5.85 ± 0.15 mm
- Rat Paw Thickness, 2 Hours (rat paw formalin edema): 5.71 ± 0.09 mm
- Rat Paw Thickness, 3 Hours (rat paw formalin edema): 5.82 ± 0.05 mm

SMILES: CN(C)CCOC(c1ccccc1)c1ccccc1 [diphenhydramine]
- % protection 30 minutes [2]: 100%
- % protection 60 minutes [2]: 100%
- % protection 90 minutes [2]: 90%

SMILES: CN1CCC(=C2c3ccccc3CC(=O)c3sccc32)CC1 [ketotifen]
- % of Prophylaxis [3]: 44.4%
- % of Prophylaxis (Protection) [4]: 82.85%
